Results from PubChem BioAssay (NCI).
Values joined by “and” are separate entries in the source; they are usually repeats but may differ in a detail not shown here. Equal entries are not always repeated.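 96-well plates; 48 h exposure; 5 concentrations. Endpoints by linear interpolation between flanking doses. Not reached: highest tested concentration assigned. At the GI50, growth is halved. TGI denotes the concentration required for complete inhibition of growth.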

What was measured:
Assay in all cases: growth of human tumour cells (NCI), 48 h
M14 melanoma = test system: M14 melanoma
NCI-H522 lung = test system: NCI-H522 lung
SF-539 CNS = test system: SF-539 CNS
SW-620 colon = test system: SW-620 colon
HCC-2998 colon = test system: HCC-2998 colon
CCRF-CEM leukemia = test system: CCRF-CEM leukemia
RPMI-8226 leukemia = test system: RPMI-8226 leukemia
DU-145 prostate = test system: DU-145 prostate
TK-10 renal = test system: TK-10 renal
T-47D breast = test system: T-47D breast

Structure (SMILES)	GI50 (M14 melanoma)	TGI (M14 melanoma)	GI50 (NCI-H522 lung)	TGI (NCI-H522 lung)	GI50 (SF-539 CNS)	TGI (SF-539 CNS)	GI50 (SW-620 colon)	TGI (SW-620 colon)	GI50 (HCC-2998 colon)	TGI (HCC-2998 colon)	GI50 (CCRF-CEM leukemia)	TGI (CCRF-CEM leukemia)	GI50 (RPMI-8226 leukemia)	TGI (RPMI-8226 leukemia)	GI50 (DU-145 prostate)	TGI (DU-145 prostate)	GI50 (TK-10 renal)	TGI (TK-10 renal)	GI50 (T-47D breast)	TGI (T-47D breast)
COc1ccc(Cn2cc3c(c2-c2cc(OC)c(OC)c(OC)c2)CCc2cnoc2-3)cc1[N+](=O)[O-]	0.662 µM	> 20.4 µM	0.294 µM	1.64 µM	1.12 µM	13.8 µM	0.482 µM	> 100 µM	1.93 µM	> 31.6 µM	0.788 µM	> 100 µM	1.39 µM	> 29.9 µM	1.91 µM	> 21.3 µM	3.57 µM	> 84.3 µM	3.58 µM	> 100 µM
Cc1c(NC(=O)OC[C@@H]2COCCN2)cn2ncnc(Nc3ccc4c(cnn4Cc4cccc(F)c4)c3)c12	9.45 µM and 4.41 µM	> 10 µM and 16.3 µM	> 10 µM and 2.16 µM	> 10 µM and 17.4 µM	> 10 µM and 11.3 µM	> 10 µM and 25.2 µM	> 10 µM and 10.5 µM	> 10 µM and 24.6 µM	> 10 µM and 12 µM	> 10 µM and 25 µM	> 10 µM and 11 µM	> 10 µM and 34.3 µM	5.35 µM and 6.35 µM	> 10 µM and 28.2 µM	9.5 µM and 4.26 µM	> 10 µM and 20.6 µM	0.546 µM and 0.415 µM	> 10 µM and 15.7 µM	1.36 µM and 1.14 µM	9.52 µM and 10.3 µM
O=C(Oc1ccccc1Cl)c1ccccc1Nc1ccnc(C(F)(F)F)c1	0.252 µM	0.913 µM	0.38 µM	> 70.3 µM	0.383 µM	1.88 µM	0.15 µM	20 µM	2.22 µM	5.26 µM	0.0324 µM		0.106 µM	0.385 µM	3.42 µM	13.3 µM	0.415 µM	4.61 µM	31.2 µM	> 100 µM
CC(=O)[O][Hg][c]1ccccc1	0.283 µM	1.06 µM	0.138 µM	0.292 µM	1.42 µM	2.83 µM	0.215 µM	0.492 µM	1.64 µM	3.11 µM	0.147 µM	0.494 µM	0.283 µM	1.3 µM	1.25 µM	2.72 µM	0.512 µM	1.36 µM	0.163 µM	0.382 µM
CN(C[C@@H]1COCCO1)S(=O)(=O)Nc1ccc2ccc3ncc(-c4cnn(C)c4)cc3c(=O)c2c1	3.89 µM	> 100 µM	3.71 µM	> 31 µM	1.57 µM	7.91 µM	4.74 µM	> 100 µM	59.6 µM	> 100 µM	5.65 µM	> 100 µM	3.88 µM	> 100 µM	6.86 µM	> 100 µM	2.64 µM	> 100 µM	5.54 µM	> 100 µM
COc1ccc(C(=O)c2cc3c(N)c(C(=O)Nc4cccc(Cl)c4C)sc3nc2C)cc1	0.0715 µM	> 25 µM	0.0623 µM	> 6.78 µM	0.0679 µM	0.169 µM	0.105 µM	> 25 µM	0.28 µM	> 25 µM	0.0889 µM	> 25 µM	0.0918 µM		0.105 µM	> 25 µM	> 25 µM	> 25 µM	0.153 µM	> 25 µM
CCN1C(=O)N(c2ccccc2)C2NN=c3s/c(=C4\C(=O)N(C(C)C)c5ccccc54)c(=O)n3C21 (configuration not stated)	0.979 µM	> 35.6 µM	1.1 µM	> 77.9 µM	0.736 µM	2.24 µM	0.891 µM	> 100 µM	3.5 µM	61.8 µM	1.16 µM	> 100 µM	2.92 µM	18 µM	1.41 µM	> 29.4 µM	4.84 µM	49.5 µM	0.716 µM	> 100 µM
COc1ccc2c(c1)[n+](=O)c(C(=O)/C=C/c1cc(OC)c(OC)c(OC)c1)c(C)n2[O-]	23.3 µM	> 100 µM	19 µM	56.6 µM	14.4 µM	29.7 µM	> 100 µM	> 100 µM	42.9 µM	> 100 µM	28 µM	> 100 µM	47.2 µM	> 100 µM	10.7 µM	25.4 µM	18.9 µM	36 µM	22.8 µM	> 100 µM
C#CCOc1cccc(Nc2ncnc3ccc(NC(=O)CCl)cc23)c1	1.07 µM	18.8 µM	0.777 µM	3.97 µM	2.83 µM	7.23 µM	0.0614 µM	5.88 µM	3.71 µM	22.7 µM	0.0725 µM	> 33.6 µM	1.22 µM	13.6 µM	0.73 µM	14.1 µM	2.06 µM	18.1 µM	3.44 µM	30.9 µM
CCCCn1sc(=O)n(Cc2ccc(CNC(=O)OCc3ccc4c(Br)cc(Br)c(O)c4n3)cc2)c1=O	0.37 µM	> 100 µM	0.264 µM		0.23 µM	0.633 µM	0.42 µM	> 100 µM	4.25 µM	> 69.8 µM	0.353 µM	> 100 µM	0.501 µM	> 100 µM	0.4 µM		> 51.5 µM	> 100 µM	> 100 µM	> 100 µM
N[C@@H]1CCCN(c2c(/C=C3\SC(=O)NC3=O)cccc2-c2ccccc2)C1	11.1 µM	25.8 µM	11.5 µM	25.3 µM	8.09 µM	22.2 µM	12.8 µM	28.3 µM	14.1 µM	28.6 µM	14 µM	38.8 µM	2.23 µM	21.6 µM	13.7 µM	28.1 µM	13.6 µM	26.8 µM	11.2 µM	28.8 µM
O=C1c2c(O)cc(O)cc2OC(c2ccc(O)cc2O)C1O (configuration not stated)		> 100 µM	> 100 µM	> 100 µM	> 100 µM	> 100 µM	> 100 µM	> 100 µM	> 100 µM	> 100 µM	> 100 µM	> 100 µM	> 100 µM	> 100 µM		> 100 µM		> 100 µM		> 100 µM
COc1ccc(C(=O)/C=C/c2ccc(OCC(=O)N3CCN(c4ccccc4)CC3)cc2)cc1		> 100 µM		> 45.8 µM		51.7 µM		> 100 µM		> 100 µM		> 100 µM		> 77.8 µM		> 100 µM		89.2 µM		> 100 µM
